Patent US20240376099A1, “COMPOUNDS AND COMPOSITIONS AS INHIBITORS OF ENDOSOMAL TOLL-LIKE RECEPTORS” (Novartis AG, priority 2016, published 2024)

These molecules were tested against T1, TLR9 (Homo sapiens, UniProt Q9NR96) (assay: huPBMC TLR9 Antagonist IFNα Assay). Conditions: human PBMCs stimulated with ODN2216 0.3 μM, 14-16 hrs; IFNα2b AlphaLISA read-out.
T1 construct: Fresh blood was collected from normal human donors; endogenous in cells; host or cells: human PBMCs from fresh donor blood
T1 sequence (Q9NR96 26-1032): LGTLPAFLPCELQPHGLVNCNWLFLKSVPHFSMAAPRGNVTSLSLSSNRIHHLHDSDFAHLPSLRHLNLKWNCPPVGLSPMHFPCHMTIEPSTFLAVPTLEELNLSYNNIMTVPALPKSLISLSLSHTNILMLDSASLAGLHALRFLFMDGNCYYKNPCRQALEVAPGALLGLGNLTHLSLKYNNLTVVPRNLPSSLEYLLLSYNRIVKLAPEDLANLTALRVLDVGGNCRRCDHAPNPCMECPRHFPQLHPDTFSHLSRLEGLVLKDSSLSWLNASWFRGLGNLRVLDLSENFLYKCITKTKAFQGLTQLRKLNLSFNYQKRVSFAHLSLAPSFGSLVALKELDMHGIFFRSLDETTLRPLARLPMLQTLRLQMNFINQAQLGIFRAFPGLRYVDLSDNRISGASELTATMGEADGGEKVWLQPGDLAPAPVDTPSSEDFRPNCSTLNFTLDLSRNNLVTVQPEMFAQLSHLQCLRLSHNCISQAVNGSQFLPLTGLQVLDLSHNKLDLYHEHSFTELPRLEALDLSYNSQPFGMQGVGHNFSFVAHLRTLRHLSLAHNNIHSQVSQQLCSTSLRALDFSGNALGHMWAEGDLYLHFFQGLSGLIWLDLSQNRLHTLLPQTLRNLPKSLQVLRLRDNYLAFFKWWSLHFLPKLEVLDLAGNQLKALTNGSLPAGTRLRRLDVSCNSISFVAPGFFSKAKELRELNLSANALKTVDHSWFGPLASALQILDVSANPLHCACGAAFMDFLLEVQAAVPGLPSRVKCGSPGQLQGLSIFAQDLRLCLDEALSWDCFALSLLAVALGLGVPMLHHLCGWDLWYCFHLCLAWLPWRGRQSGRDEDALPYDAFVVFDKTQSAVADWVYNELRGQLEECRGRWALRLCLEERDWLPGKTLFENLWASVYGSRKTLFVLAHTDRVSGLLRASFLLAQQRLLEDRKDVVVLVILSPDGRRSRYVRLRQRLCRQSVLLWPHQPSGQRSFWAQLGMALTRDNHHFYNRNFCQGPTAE
Assay type: cell-based
How it was run: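 Human PBMCs from fresh donor blood (150,000 cells/well) stimulated 14–16 h at 37 °C with DOTAP-complexed ssRNA40 (final 1 μg/ml for TLR8, 10 μg/mL for TLR7) or ODN2216 (final 0.3 μM, TLR9), 0.25% DMSO, ten-point 1/3 compound dilutions. Supernatant IL-6 read by HTRF (TLR8); IFNα by IFNα2b AlphaLISA (TLR7/TLR9).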

IC50 | SMILES
299 nM | [2H]C([2H])([2H])N(CC(=O)NC12CCC(Cn3nc(C)c4c3CCN(c3cc(C)nc5c3cnn5C)C4)(CC1)CC2)C([2H])([2H])[2H] [compound 134, 2-(bis(trideuteromethyl)amino)-N-(4-((5-(1,6-dimethyl-1H-pyrazolo[3,4-b]pyridin-4-yl)-3-methyl-4,5,6,7-tetrahydro-1H-pyrazolo[4,3-c]pyridin-1-yl)methyl)bicyclo[2.2.2]octan-1-yl)acetamide]
1280 nM | Cc1cc(N2CCc3c(c(C)nn3CC34CCC(NCC5(CO)COC5)(CC3)CC4)C2)c2cnn(C)c2n1 [compound 137, (3-(((4-((5-(1,6-dimethyl-1H-pyrazolo[3,4-b]pyridin-4-yl)-3-methyl-4,5,6,7-tetrahydro-1H-pyrazolo[4,3-c]pyridin-1-yl)methyl)bicyclo[2.2.2]octan-1-yl)amino)methyl)oxetan-3-yl)methanol]
5170 nM | CCn1ncc2c(N3CCc4c(c(C)nn4CC45CCC(NC(=O)[C@@H]6COCCN6)(CC4)CC5)C3)cc(C)nc21 [compound 141, (S)-N-(4-((5-(1-ethyl-6-methyl-1H-pyrazolo[3,4-b]pyridin-4-yl)-3-methyl-4,5,6,7-tetrahydro-1H-pyrazolo[4,3-c]pyridin-1-yl)methyl)bicyclo[2.2.2]octan-1-yl)morpholine-3-carboxamide]
> 6590 nM | CNCCC(=O)NC12CCC(Cn3nc(C)c4c3CCN(c3cc(C)nc5c3cnn5C)C4)(CC1)CC2 [compound 142, N-(4-((5-(1,6-dimethyl-1H-pyrazolo[3,4-b]pyridin-4-yl)-3-methyl-4,5,6,7-tetrahydro-1H-pyrazolo[4,3-c]pyridin-1-yl)methyl)bicyclo[2.2.2]octan-1-yl)-3-(methylamino)propanamide]
841 nM | Cc1cc(N2CCc3c(c(C)nn3CC34CCC(NC5CCC5)(CC3)CO4)C2)c2cnn(C)c2n1 [compound 143, N-cyclobutyl-1-((5-(1,6-dimethyl-1H-pyrazolo[3,4-b]pyridin-4-yl)-3-methyl-4,5,6,7-tetrahydro-1H-pyrazolo[4,3-c]pyridin-1-yl)methyl)-2-oxabicyclo[2.2.2]octan-4-amine]
139 nM | Cc1nn(CC23CCC(NC4CCC4)(CC2)CC3)c2c1CN(c1ccnc(-c3ccccc3)c1)CC2 [compound 144, N-cyclobutyl-4-((3-methyl-5-(2-phenylpyridin-4-yl)-4,5,6,7-tetrahydro-1H-pyrazolo[4,3-c]pyridin-1-yl)methyl)bicyclo[2.2.2]octan-1-amine]
> 10000 nM | Cc1cc(N2CCc3c(c(C)nn3CC34CCC(NC(=O)OC(C)(C)C)(CC3)C4)C2)c2cnn(C)c2n1 [compound 148, tert-butyl (4-((5-(1,6-dimethyl-1H-pyrazolo[3,4-b]pyridin-4-yl)-3-methyl-4,5,6,7-tetrahydro-1H-pyrazolo[4,3-c]pyridin-1-yl)methyl)bicyclo[2.2.1]heptan-1-yl)carbamate]
